Molecular target: T1, ASK1 (Homo sapiens, UniProt Q99683)
T1 construct: purchased Thermofisher PV4011
T1 sequence (Q99683 1-1374): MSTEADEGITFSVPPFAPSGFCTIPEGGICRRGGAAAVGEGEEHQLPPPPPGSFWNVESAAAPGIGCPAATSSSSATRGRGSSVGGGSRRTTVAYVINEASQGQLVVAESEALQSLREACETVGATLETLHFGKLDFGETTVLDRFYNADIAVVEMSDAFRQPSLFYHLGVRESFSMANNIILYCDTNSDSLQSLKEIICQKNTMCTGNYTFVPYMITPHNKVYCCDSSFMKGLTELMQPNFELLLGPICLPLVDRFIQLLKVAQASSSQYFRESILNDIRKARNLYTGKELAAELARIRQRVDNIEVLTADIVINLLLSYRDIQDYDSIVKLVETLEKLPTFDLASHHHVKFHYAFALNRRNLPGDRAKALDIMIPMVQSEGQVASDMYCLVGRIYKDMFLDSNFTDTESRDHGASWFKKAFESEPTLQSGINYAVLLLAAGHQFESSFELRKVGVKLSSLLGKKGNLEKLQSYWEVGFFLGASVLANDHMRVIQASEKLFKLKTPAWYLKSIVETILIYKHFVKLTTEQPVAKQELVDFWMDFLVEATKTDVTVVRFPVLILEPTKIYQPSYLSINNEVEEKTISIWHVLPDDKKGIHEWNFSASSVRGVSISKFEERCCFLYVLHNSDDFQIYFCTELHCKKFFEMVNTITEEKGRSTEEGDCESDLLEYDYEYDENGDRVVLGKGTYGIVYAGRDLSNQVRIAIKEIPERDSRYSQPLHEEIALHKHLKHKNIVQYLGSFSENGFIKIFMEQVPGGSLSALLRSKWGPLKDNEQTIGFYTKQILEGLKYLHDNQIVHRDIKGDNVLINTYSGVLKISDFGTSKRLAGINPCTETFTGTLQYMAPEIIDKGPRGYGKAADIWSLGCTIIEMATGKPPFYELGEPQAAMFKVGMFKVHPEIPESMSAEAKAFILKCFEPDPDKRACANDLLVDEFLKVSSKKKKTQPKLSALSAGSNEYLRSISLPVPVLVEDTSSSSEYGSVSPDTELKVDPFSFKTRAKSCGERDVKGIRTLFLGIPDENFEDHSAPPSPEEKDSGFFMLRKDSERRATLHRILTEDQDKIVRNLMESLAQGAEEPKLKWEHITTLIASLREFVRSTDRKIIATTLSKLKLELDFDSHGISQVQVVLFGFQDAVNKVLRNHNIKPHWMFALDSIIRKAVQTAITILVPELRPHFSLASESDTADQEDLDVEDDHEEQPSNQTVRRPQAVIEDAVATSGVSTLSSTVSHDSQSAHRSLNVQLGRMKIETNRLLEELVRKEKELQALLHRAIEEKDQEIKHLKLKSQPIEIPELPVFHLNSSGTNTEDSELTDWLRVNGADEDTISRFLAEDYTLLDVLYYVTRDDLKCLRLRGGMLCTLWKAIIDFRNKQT
Test: HTRF KinEASE-STK TR-FRET kinase assay, inhibition of ASK1
Type: biochemical
Conditions: 5 nM ASK1, 1 uM STK3 peptide substrate, 100 uM ATP
Description: ASK1 was purchased from Thermofisher (Catalogue # PV4011), ATP was purchased from Sigma (Catalogue # A7699), HTRF® KinEASE™ Assay System was obtained from Cisbio (Bedford, Mass.). ½ Area plate was purchased from Perkin Elmer (Catalogue # #6005560). HTRF® KinEASE™-STK is a generic method for measuring serine/threonine kinase activities using a time-resolved fluorescence resonance energy transfer (TR-FRET) immunoassay. The IC50 value for each compound was determined in the presence of compound (various concentration from 0 to 10 μM) and a fixed amount of ATP and peptide substrates. The test compound, 1 uM STK3 peptide substrate, and 5 nM of ASK1 kinase are incubated with kinase reaction buffer containing 50 mM HEPES pH 7.5, 0.01% BRIJ-35, 10 mM MgCl2, and 1 mM EGTA for 30 minutes. 100 uM ATP is added to start kinase reaction and incubated for 3 hours. The STK3-antibody labeled with Eu^3+-Cryptate and 125 nM streptavidin-XL665 are mixed in a single addition with stop reagents provided by the Cisbio kit used to stop the kinase reaction. Fluorescence is detected using an Envision Multilabeled 2014 reader from PerkinElmer. The Fluorescence is measured at 615 nm (Cryptate) and 665 nm (XL665) and a ratio of 665 nm/615 nm is calculated for each well. The resulting TR-FRET is proportional to the phosphorylation level. Staurosporine was used as the positive control. IC50 was determined by XLfit 5.3.

Row | SMILES | IC50
1 | CC(C)n1cnnc1-c1cccc(NC(=O)c2cc3sc(NC4CC4)nc3cc2F)n1 [Example 6, 2-(cyclopropylamino)-5-fluoro-N-(6-(4-isopropyl-4H-1,2,4-triazol-3-yl)pyridin-2-yl)benzo[d]thiazole-6-carboxamide] | 1 to 10 nM
2 | CC(C)n1cnnc1-c1cccc(NC(=O)c2ccc3nc(N4CCCC4)sc3c2)n1 [Example 20] | 100 to 1000 nM
3 | CC(C)n1nnnc1-c1cccc(NC(=O)c2cc3sc(N(C)C4CC4)nc3cc2F)n1 [Example 32] | > 1000 nM
4 | CCCCN(C)c1nc2cc(F)c(C(=O)Nc3cccc(-c4nnnn4C(C)C)n3)cc2s1 [Example 43] | > 1000 nM
5 | CC(C)n1cnnc1-c1cccc(NC(=O)c2cc3sc(N4CCC4)nc3cc2F)n1 [Example 28] | 1 to 10 nM
6 | CC(C)n1cnnc1-c1cccc(NC(=O)c2ccc3nc(NC4CCCCC4)sc3c2)n1 [Example 24] | 10 to 100 nM
7 | CC(C)n1nnnc1-c1cccc(NC(=O)c2cc3sc(N4CCCCC4)nc3cc2F)n1 [Example 4] | > 1000 nM
8 | CC(C)n1cnnc1-c1cccc(NC(=O)c2ccc3nc(-c4ccc(C(C)(C)C)cc4)sc3c2)n1 [Example 58, 2-(4-(tert-butyl)phenyl)-N-(6-(4-isopropyl-4H-1,2,4-triazol-3-yl)pyridin-2-yl)benzo[d]thiazole-6-carboxamide] | > 1000 nM
9 | CC(C)n1cnnc1-c1cccc(NC(=O)c2cc3sc(N4CCN(C5CC5)CC4)nc3cc2F)n1 [Example 12] | 1 to 10 nM
10 | CC(C)n1cnnc1-c1cccc(NC(=O)c2ccc3nc(N4CC5CCC(C4)O5)sc3c2)n1 [Example 17] | 10 to 100 nM
11 | CC(C)n1nnnc1-c1cccc(NC(=O)c2cc3sc(NC4CC4)nc3cc2F)n1 [Example 38] | > 1000 nM
12 | CC(C)n1nnnc1-c1cccc(NC(=O)c2cc3sc(C4CC4)nc3cn2)n1 [Example 70] | > 1000 nM
13 | CC(C)n1cnnc1-c1cccc(NC(=O)c2cc3sc(N4CCCC4)nc3cc2F)n1 [Example 50] | 1 to 10 nM
14 | CC(C)n1cnnc1-c1cccc(NC(=O)c2ccc3nc(N4CC5(COC5)C4)sc3c2)n1 [Example 18] | 10 to 100 nM
15 | CC(C)n1cnnc1-c1cccc(NC(=O)c2cc3sc(N4CCN(C(C)(C)C)CC4)nc3cn2)n1 [Example 74] | 10 to 100 nM
16 | CC(C)n1nnnc1-c1cccc(NC(=O)c2cc3sc(N(C)C)nc3cn2)n1 [Example 75] | 10 to 100 nM
17 | CNc1nc2cc(F)c(C(=O)Nc3cccc(-c4nnnn4C(C)C)n3)cc2s1 [Example 33] | > 1000 nM
18 | CC(C)n1cnnc1-c1cccc(NC(=O)c2cc3sc(NC4CCCCC4)nc3cc2F)n1 [Example 26] | 1 to 10 nM
19 | CC(C)n1cnnc1-c1cccc(NC(=O)c2cc3sc(N4CCOCC4)nc3cc2F)n1 [Example 16] | 1 to 10 nM
20 | CCN(CC)c1nc2cc(F)c(C(=O)Nc3cccc(-c4nncn4C(C)C)n3)cc2s1 [Example 13] | 1 to 10 nM
21 | CC(C)n1cnnc1-c1cccc(NC(=O)c2cc3sc(N4CCC(C(C)(C)C)CC4)nc3cc2F)n1 [Example 29] | 10 to 100 nM
22 | CC(C)n1cnnc1-c1cccc(NC(=O)c2cc3sc(C4CC4)nc3cn2)n1 [Example 63, 2-cyclopropyl-N-(6-(4-isopropyl-4H-1,2,4-triazol-3-yl)pyridin-2-yl)thiazolo[4,5-c]pyridine-6-carboxamide] | 10 to 100 nM
23 | CC(C)n1cnnc1-c1cccc(NC(=O)c2cc3sc(N(C)CC4CC4)nc3cc2F)n1 [Example 11] | 1 to 10 nM
24 | CC(C)n1nnnc1-c1cccc(NC(=O)c2cc3sc(N4CCC(C(C)(C)C)CC4)nc3cc2F)n1 [Example 41] | > 1000 nM

Row | SMILES | IC50
25 | CC(C)n1cnnc1-c1cccc(NC(=O)c2ccc3nc(N4CCCCC4)sc3c2)n1 [Example 60, N-(6-(4-isopropyl-4H-1,2,4-triazol-3-yl)pyridin-2-yl)-2-(piperidin-1-yl)benzo[d]thiazole-6-carboxamide] | 10 to 100 nM
26 | CC(C)n1nnnc1-c1cccc(NC(=O)c2cc3sc(N4CCN(C(C)(C)C)CC4)nc3cn2)n1 [Example 71] | 100 to 1000 nM
27 | CC(C)n1cnnc1-c1cccc(NC(=O)c2cc3sc(N4CCCCC4)nc3cc2F)n1 [Example 30, 5-fluoro-N-(6-(4-isopropyl-4H-1,2,4-triazol-3-yl)pyridin-2-yl)-2-(piperidin-1-yl)benzo[d]thiazole-6-carboxamide] | 1 to 10 nM
28 | CC(C)n1cnnc1-c1cccc(NC(=O)c2ccc3nc(N4CCN(C5CC5)CC4)sc3c2)n1 [Example 55] | 100 to 1000 nM
29 | CC(C)n1cnnc1-c1cccc(NC(=O)c2ccc3nc(N4CCOCC4)sc3c2)n1 [Example 61] | 10 to 100 nM
30 | CC(C)n1cnnc1-c1cccc(NC(=O)c2cc3sc(N(C)C4CC4)nc3cc2F)n1 [Example 10] | 1 to 10 nM
31 | CC(C)n1nnnc1-c1cccc(NC(=O)c2cc3sc(N4CCCCC4)nc3cn2)n1 [Example 62] | > 1000 nM
32 | CC(C)n1nnnc1-c1cccc(NC(=O)c2cc3sc(N4CCC(C(C)(C)C)CC4)nc3cn2)n1 [Example 68] | > 1000 nM
33 | CC(C)n1cnnc1-c1cccc(NC(=O)c2cc3sc(N(C)C)nc3cc2F)n1 [Example 14] | 1 to 10 nM
34 | CC(C)n1cnnc1-c1cccc(NC(=O)c2cc3sc(N4CCC(C(C)(C)C)CC4)nc3cn2)n1 [Example 73] | > 1000 nM
35 | CC(C)n1nnnc1-c1cccc(NC(=O)c2cc3sc(C4CCC4)nc3cc2F)n1 [Example 36] | 100 to 1000 nM
36 | CCCCNc1nc2cc(F)c(C(=O)Nc3cccc(-c4nncn4C(C)C)n3)cc2s1 [Example 27] | 1 to 10 nM
37 | CCN(CC)c1nc2cc(F)c(C(=O)Nc3cccc(-c4nnnn4C(C)C)n3)cc2s1 [Example 35] | > 1000 nM
38 | CC(C)n1cnnc1-c1cccc(NC(=O)c2cc3sc(C4CC4)nc3cc2F)n1 [Example 7, 2-cyclopropyl-5-fluoro-N-(6-(4-isopropyl-4H-1,2,4-triazol-3-yl)pyridin-2-yl)benzo[d]thiazole-6-carboxamide] | 10 to 100 nM
39 | CC(C)N(c1nc2ccc(C(=O)Nc3cccc(-c4nncn4C(C)C)n3)cc2s1)C(C)C [Example 53, 2-(diisopropylamino)-N-(6-(4-isopropyl-4H-1,2,4-triazol-3-yl)pyridin-2-yl)benzo[d]thiazole-6-carboxamide] | 10 to 100 nM
40 | CC(C)n1nnnc1-c1cccc(NC(=O)c2cc3sc(N4CCC4)nc3cc2F)n1 [Example 45] | > 1000 nM
41 | CC(C)n1nnnc1-c1cccc(NC(=O)c2cc3sc(N(C)C)nc3cc2F)n1 [Example 5] | 10 to 100 nM
42 | CCN(CC)c1nc2ccc(C(=O)Nc3cccc(-c4nncn4C(C)C)n3)cc2s1 [Example 57] | 10 to 100 nM
43 | CC(C)n1cnnc1-c1cccc(NC(=O)c2cc3sc(C4CCC4)nc3cn2)n1 [Example 67] | 10 to 100 nM
44 | CC(C)n1cnnc1-c1cccc(NC(=O)c2cc3sc(NCC4CC4)nc3cc2F)n1 [Example 48] | 10 to 100 nM
45 | CC(C)n1cnnc1-c1cccc(NC(=O)c2cc3sc(N4CCOCC4)nc3cn2)n1 [Example 65] | 1 to 10 nM
46 | CC(C)n1nnnc1-c1cccc(NC(=O)c2cc3sc(C4CC4)nc3cc2F)n1 [Example 31] | > 1000 nM
47 | CCCCN(C)c1nc2cc(F)c(C(=O)Nc3cccc(-c4nncn4C(C)C)n3)cc2s1 [Example 9] | 1 to 10 nM
48 | CC(C)n1cnnc1-c1cccc(NC(=O)c2ccc3nc(N4CCC4)sc3c2)n1 [Example 21] | 100 to 1000 nM

Reference: patent US10246439B2, “Apoptosis signal-regulating kinase 1 inhibitors and methods of use thereof” (ENANTA PHARMACEUTICALS, INC., priority 2017, dated 2019)
